Experimental data from patent US7795456B2, “Insecticidal N-substituted sulfoximines” (Dow AgroSciences LLC, priority 2004, dated 2010).

What was measured:
[1] = test system: yellow fever mosquito (Aedes aegypti) larvae; experiment: whole plant or invertebrate; type: in vivo; conditions: 72 h, read-out: YFM 26: % control at 26 ppm against yellow fever mosquito in submerge tests
[2] = test system: corn earworm (Helicoverpa zea); conditions: 50 μg/cm2, second-instar larvae, 5 days
[3] = test system: beet armyworm (Spodoptera exigua); conditions: 50 μg/cm2, second-instar larvae, 5 days
[4] = test system: fruit fly (Drosophila melanogaster); conditions: for FF 25: % mortality at 25 μg/cm2 against fruit fly in dietary tests: 25 μg/cm2, 48 h; for FF SYM: % showing intoxicated symptoms at 25 μg/cm2 against fruit fly in dietary tests: 25 μg/cm2, 4 h
[5] = test system: beet armyworm (Spodoptera exigua); experiment: Insecticidal test for beet armyworm in injection assays; conditions: 1 h, read-out: BAW SYM: % showing intoxicated symptoms at 10 μg/larva against beet armyworm in injection tests
[6] = test system: cotton aphid (Aphis gossypii); experiment: Insecticidal test for cotton aphid, foliar spray on squash; conditions: for pest or weed control at 50 ppm / pest or weed control at 200 ppm: Aphis gossypii, foliar, 72 h; for pest or weed control at 50 ppm: read-out: CA 50: % control at 50 ppm against cotton aphid in foliar spray tests; for pest or weed control at 200 ppm: read-out: CA 200: % control at 200 ppm against cotton aphid in foliar spray tests; for % Control at ppm, against cotton aphid: 0.012: 0.012 ppm; for % Control at ppm, against cotton aphid: 0.012 / % Control at ppm, against cotton aphid: 0.049 / % Control at ppm, against cotton aphid: 0.195 / % Control at ppm, against cotton aphid: 0.78 / % Control at ppm, against cotton aphid: 3.12: rundown assay; for % Control at ppm, against cotton aphid: 0.049: 0.049 ppm; for % Control at ppm, against cotton aphid: 0.195: 0.195 ppm; for % Control at ppm, against cotton aphid: 0.78: 0.78 ppm; for % Control at ppm, against cotton aphid: 3.12: 3.12 ppm
[7] = test system: sweet potato whitefly (Bemisia tabaci); experiment: Insecticidal test for sweet potato whitefly, foliar spray on cotton; conditions: for % Control at ppm, against sweet potato whitefly: 0.4-0.78: 0.4-0.78 ppm; for % Control at ppm, against sweet potato whitefly: 0.4-0.78 / % Control at ppm, against sweet potato whitefly: 2-3.13 / % Control at ppm, against sweet potato whitefly: 10-12.5 / % Control at ppm, against sweet potato whitefly: 50: rundown assay; for % Control at ppm, against sweet potato whitefly: 2-3.13: 2-3.13 ppm; for % Control at ppm, against sweet potato whitefly: 10-12.5: 10-12.5 ppm; for % Control at ppm, against sweet potato whitefly: 50: 50 ppm; for pest or weed control at 200 ppm: Bemisia tabaci, in Gossypium hirsutum, foliar, read-out: SPW 200: % control at 200 ppm against sweet potato whitefly in foliar spray tests
[8] = test system: green peach aphid (Myzus persicae); experiment: Insecticidal test for green peach aphid, foliar spray on cabbage seedlings; conditions: rundown assay, 3 days; for % Control at ppm, against green peach aphid: 0.012: 0.012 ppm; for % Control at ppm, against green peach aphid: 0.049: 0.049 ppm; for % Control at ppm, against green peach aphid: 0.195: 0.195 ppm; for % Control at ppm, against green peach aphid: 0.78: 0.78 ppm; for % Control at ppm, against green peach aphid: 3.12: 3.12 ppm

SMILES	pest or weed control at 26 ppm [1]	CEW 50: % mortality at 50 μg/cm2 against corn earworm in dietary tests [2]	BAW 50: % mortality at 50 μg/cm2 against beet armyworm in dietary tests [3]	FF 25: % mortality at 25 μg/cm2 against fruit fly in dietary tests [4]	pest or weed control at 0.01 mg [5]	pest or weed control at 50 ppm [6]	pest or weed control at 200 ppm [6]	FF SYM: % showing intoxicated symptoms at 25 μg/cm2 against fruit fly in dietary tests [4]	also measured
N#CN=S1(=O)CCCCC1Cc1ccc(Cl)nc1 (stereo not drawn) [Compound 5, 2-[(6-chloropyridin-3-yl)methyl]-1-oxidohexahydro-1λ^4-thiopyran-1-ylidenecyanamide]	50 to 59%	G (Inactive)	G (Inactive)	G (Inactive)	50 to 59%	90 to 100%	90 to 100%	–	–
CC(C)(c1ccc(Cl)nc1)S(C)(=O)=NC#N (stereo not drawn) [Compound 9, [1-(6-chloropyridin-3-yl)-1-methylethyl](methyl)oxido-λ^4-sulfanylidenecyanamide]	90 to 100%	G (Inactive)	G (Inactive)	C (70-79)	< 50%	90 to 100%	90 to 100%	A (90-100)	–
N#CN=S1(=O)CCCC1Cc1cnc(Cl)s1 (stereo not drawn) [Compound 11, 2-[(2-chloro-1,3-thiazol-5-yl)methyl]-1-oxidotetrahydro-1H-1λ^4-thien-1-ylidenecyanamide]	90 to 100%	G (Inactive)	G (Inactive)	D (60-69)	60 to 69%	90 to 100%	90 to 100%	–	–
N#CN=S1(=O)CCC[C@H]1Cc1ccc(Cl)nc1 (stereo partly drawn) [Compound 21]	80 to 89%	G (Inactive)	G (Inactive)	G (Inactive)	–	90 to 100%	90 to 100%	–	–
CS(=O)(=NC#N)C(Cl)c1ccc(Cl)nc1 (stereo not drawn) [Compound 23]	90 to 100%	G (Inactive)	G (Inactive)	A (90-100)	< 50%	90 to 100%	90 to 100%	A (90-100)	–
CS(=O)(=NC#N)C(Br)c1ccc(Cl)nc1 (stereo not drawn) [Compound 24]	90 to 100%	G (Inactive)	G (Inactive)	A (90-100)	< 50%	90 to 100%	90 to 100%	F (Less than 50)	–
CS(=O)(=NC#N)C(F)c1ccc(Cl)nc1 (stereo not drawn) [Compound 25]	90 to 100%	G (Inactive)	G (Inactive)	C (70-79)	–	90 to 100%	90 to 100%	B (80-89)	–
CCC(c1ccc(Cl)nc1)S(C)(=O)=NC#N (stereo not drawn) [Compound 26]	90 to 100%	G (Inactive)	G (Inactive)	A (90-100)	< 50%	90 to 100%	90 to 100%	A (90-100)	–
CS(=O)(=NC#N)C(Cc1ccccc1)c1ccc(Cl)nc1 (stereo not drawn) [Compound 27]	80 to 89%	G (Inactive)	G (Inactive)	G (Inactive)	–	90 to 100%	90 to 100%	–	–
C[C@H](c1ccc(Cl)nc1)[S@](C)(=O)=NC#N [Compound 28]	90 to 100%	G (Inactive)	G (Inactive)	A (90-100)	60 to 69%	90 to 100%	90 to 100%	A (90-100)	% Control at ppm, against cotton aphid: 0.012 [6]: A (90-100); % Control at ppm, against cotton aphid: 0.049 [6]: A (90-100); % Control at ppm, against cotton aphid: 0.195 [6]: A (90-100); % Control at ppm, against cotton aphid: 0.78 [6]: A (90-100); % Control at ppm, against cotton aphid: 3.12 [6]: A (90-100); % Control at ppm, against sweet potato whitefly: 0.4-0.78 [7]: A (90-100); % Control at ppm, against sweet potato whitefly: 2-3.13 [7]: A (90-100); % Control at ppm, against sweet potato whitefly: 10-12.5 [7]: A (90-100); % Control at ppm, against sweet potato whitefly: 50 [7]: A (90-100); pest or weed control at 200 ppm [7]: 90 to 100%; % Control at ppm, against green peach aphid: 0.012 [8]: F (Less than 50); % Control at ppm, against green peach aphid: 0.049 [8]: F (Less than 50); % Control at ppm, against green peach aphid: 0.195 [8]: B (80-89); % Control at ppm, against green peach aphid: 0.78 [8]: A (90-100); % Control at ppm, against green peach aphid: 3.12 [8]: A (90-100)
CC(c1ccc(Cl)nc1)[S@](C)(=O)=NC#N (stereo partly drawn) [Compound 29]	90 to 100%	G (Inactive)	G (Inactive)	A (90-100)	90 to 100%	90 to 100%	90 to 100%	A (90-100)	% Control at ppm, against cotton aphid: 0.012 [6]: A (90-100); % Control at ppm, against cotton aphid: 0.049 [6]: A (90-100); % Control at ppm, against cotton aphid: 0.195 [6]: A (90-100); % Control at ppm, against cotton aphid: 0.78 [6]: A (90-100); % Control at ppm, against cotton aphid: 3.12 [6]: A (90-100); % Control at ppm, against sweet potato whitefly: 0.4-0.78 [7]: A (90-100); % Control at ppm, against sweet potato whitefly: 2-3.13 [7]: A (90-100); % Control at ppm, against sweet potato whitefly: 10-12.5 [7]: A (90-100); % Control at ppm, against sweet potato whitefly: 50 [7]: A (90-100); pest or weed control at 200 ppm [7]: 90 to 100%; % Control at ppm, against green peach aphid: 0.012 [8]: F (Less than 50); % Control at ppm, against green peach aphid: 0.049 [8]: D (60-69); % Control at ppm, against green peach aphid: 0.195 [8]: A (90-100); % Control at ppm, against green peach aphid: 0.78 [8]: A (90-100); % Control at ppm, against green peach aphid: 3.12 [8]: A (90-100)
CCS(=O)(CC(C)c1ccc(Cl)nc1)=N[N+](=O)[O-] (stereo not drawn) [Compound 38]	< 50%	G (Inactive)	G (Inactive)	G (Inactive)	–	80 to 89%	90 to 100%	–	–
